From BindingDB's records for doi:10.1016/j.bmcl.2009.11.061 (Glaxosmithkline, 2010)

Test: Inhibition of GSK3beta phosphorylation in human BT474 cells

| SMILES | IC50 [nM] |
| --- | --- |
| Cc1occc1-c1nc(N)c(OC[C@@H](N)Cc2c(C(N)=O)[nH]c3ccccc23)cc1-c1cnc2[nH]nc(C)c2n1 [3-((2S)-2-amino-3-(2-amino-5-(3-methyl-1H-pyrazolo[4,3-b]pyrazin-5-yl)-6-(2-methylfuran-3-yl)pyridin-3-yloxy)propyl)-1H-indole-2-carboxamide] | > 30000 |
| Cc1occc1-c1nc(N)c(OC[C@@H](N)Cc2c[nH]c3ccccc23)cc1-c1cc2c(C)n[nH]c2cn1 [3-((S)-2-amino-3-(1H-indol-3-yl)propoxy)-5-(3-methyl-1H-pyrazolo[3,4-c]pyridin-5-yl)-6-(2-methylfuran-3-yl)pyridin-2-amine] | 680 |
| Cc1occc1-c1nc(N)c(OC[C@@H](N)Cc2c[nH]c3ccccc23)cc1-c1cnc2[nH]nc(C)c2n1 [3-((S)-2-amino-3-(1H-indol-3-yl)propoxy)-5-(3-methyl-1H-pyrazolo[4,3-b]pyrazin-5-yl)-6-(2-methylfuran-3-yl)pyridin-2-amine] | 560 |
| Cc1occc1-c1nc(N)c(OC[C@@H](N)Cc2c(Cl)[nH]c3ccccc23)cc1-c1cnc2[nH]nc(C)c2n1 [3-((S)-2-amino-3-(2-chloro-1H-indol-3-yl)propoxy)-5-(3-methyl-1H-pyrazolo[4,3-b]pyrazin-5-yl)-6-(2-methylfuran-3-yl)pyridin-2-amine] | 300 |
| Cc1n[nH]c2ncc(-c3cc(OC[C@@H](N)Cc4c[nH]c5ccccc45)c(C#N)nc3-c3ccoc3)nc12 [(S)-3-(2-amino-3-(1H-indol-3-yl)propoxy)-6-(furan-3-yl)-5-(3-methyl-1H-pyrazolo[4,3-b]pyrazin-5-yl)picolinonitrile] | > 10000 |

Further lines, results first:

| IC50 [nM] | SMILES |
| --- | --- |
| > 30000 | Cc1occc1-c1nc(N)c(OC[C@@H](N)Cc2c(C#N)[nH]c3ccccc23)cc1-c1cnc2[nH]nc(C)c2n1 [3-((2S)-2-amino-3-(2-amino-5-(3-methyl-1H-pyrazolo[4,3-b]pyrazin-5-yl)-6-(2-methylfuran-3-yl)pyridin-3-yloxy)propyl)-1H-indole-2-carbonitrile] |
| 220 | Cc1occc1-c1nc(N)c(OC[C@@H](N)Cc2c[nH]c3ccccc23)cc1-c1ccc2[nH]nc(C)c2c1 [3-((S)-2-amino-3-(1H-indol-3-yl)propoxy)-5-(3-methyl-1H-indazol-5-yl)-6-(2-methylfuran-3-yl)pyridin-2-amine] |
| 280 | Cc1occc1-c1nc(N)c(OC[C@@H](N)Cc2ccccc2)cc1-c1cnc2[nH]nc(C)c2n1 [3-((S)-2-amino-3-phenylpropoxy)-5-(3-methyl-1H-pyrazolo[4,3-b]pyrazin-5-yl)-6-(2-methylfuran-3-yl)pyridin-2-amine] |
| 210 | Cc1occc1-c1ncc(OC[C@@H](N)Cc2c[nH]c3ccccc23)cc1-c1cnc2[nH]nc(C)c2n1 [(2S)-1-(1H-indol-3-yl)-3-(5-(3-methyl-1H-pyrazolo[4,3-b]pyrazin-5-yl)-6-(2-methylfuran-3-yl)pyridin-3-yloxy)propan-2-amine] |
| 280 | Cc1nc(-c2ccoc2)c(-c2cnc3[nH]nc(C)c3n2)cc1OC[C@@H](N)Cc1c[nH]c2ccccc12 [(S)-1-(6-(furan-3-yl)-2-methyl-5-(3-methyl-1H-pyrazolo[4,3-b]pyrazin-5-yl)pyridin-3-yloxy)-3-(1H-indol-3-yl)propan-2-amine] |
| > 10000 | CCNc1nc(-c2ccoc2)c(-c2cnc3[nH]nc(C)c3n2)cc1OC[C@@H](N)Cc1ccccc1 [(S)-3-(2-amino-3-phenylpropoxy)-N-ethyl-6-(furan-3-yl)-5-(3-methyl-1H-pyrazolo[4,3-b]pyrazin-5-yl)pyridin-2-amine] |
